# In patent US7022648B2, “Plant seeds treated with N,N′-substituted ureas” (Stoller Enterprises, Inc., priority 1996, dated 2006):
# “And” between values parts separate entries of the source, which are not always exact repeats. Identical values can stand only once.
# Experiments:
# Assay type in all cases: in vivo
# Corn [1] = assay: Greenhouse pot test, foliar treatment 0.01 M diformylurea; settings: foliar treated, three leaf stage, 30 days
# Method: (§1) Based upon the foregoing preliminary work, additional experiments to investigate the effect of diformylurea on other plant species was undertaken. These experiments were also designed to compare the effect of treating seeds as described above with foliar treatment. Wheat, corn and peanuts were selected for the next phase of this work. Diformylurea was prepared by reacting formic acid and urea at a molar ratio of 2:1 as described above. An aqueous solution containing diformylurea at a concentration of 0.01 M was prepared. For the seed treatment portion of the experiments, the seeds to be treated were soaked in the foregoing solution for about 24 hours before planting. The control seeds were again soaked in water for the same time. Both control and treated seeds were planted in 1 gallon greenhouse pots. Five seeds were planted in each pot. Each pot was thinned to two plants after germination. For the foliar treatment portion of the experiment, plants grown from untreated seeds were sprayed with a solution containing 0.01 M. diformylurea at the three leaf stage. All plants were watered and fertilized as required. Thirty days after planting, the plants were harvested and the roots and shoots examined. The mass of both the roots and shoots and the total mass of the plant in each pot were determined.
# Wheat = assay: as above; settings: foliar treated, three leaf stage, 30 days
# Method: as §1
# Corn [2] = assay: Greenhouse pot test, effect of diformylurea concentration applied to seeds; settings: seed treated, 24 h soak, 30 days; for Roots (gm), Average / Shoots (gm), Average / Total (gm), Average: average of samples; for Roots (gm) / Shoots (gm) / Total (gm): single sample (pot)
# Method: (§2) Additional experiments were designed to study further the effect of the concentration of diformylurea applied to the seeds of several other crops. These experiments were conducted using cotton, rice, corn and soybeans. These experiments were similar to the preliminary experiments described above. The concentrate described above, containing both diformylurea and formate, was used to prepare solutions containing low, medium and high concentrations of diformylurea having, respectively, 0.001 M, 0.01 M and 0.05 M diformylurea. These solutions were used to treat the seeds of cotton, rice, corn and soybeans. Seeds of each of these crops were soaked in water or the prepared aqueous solutions of diformylurea for 24 hours before planting. Five seeds were planted in each of six, 1 gallon greenhouse pots. Pots were thinned to two plants after germination and the plants watered and fertilized as needed for 30 days. Thereafter, the plants were harvested and the mass of the roots, shoots and total mass determined.
# Cotton = assay: as above; settings: seed treated, 0.001 M, 24 h soak, 30 days
# Method: as §2
smiles,measurement,setting,value
"O=CNC(=O)NC=O [diformylurea, N,N′-diformylurea]","Percent Change v. Control, Roots",Corn [1],11%
same,"Percent Change v. Control, Shoots",Corn [1],103%
same,"Percent Change v. Control, Total",Corn [1],46%
same,Root/Shoot Ratio,Corn [1],0.90
same,"Roots (gm), Average",Corn [1]; average of samples,51.38 gm
same,"Shoots (gm), Average",Corn [1]; average of samples,57.31 gm
same,"Total (gm), Average",Corn [1]; average of samples,108.69 gm
same,Roots (gm),Corn [1]; single sample (pot),42.40 gm and 48.44 gm and 52.48 gm and 56.22 gm and 42.18 gm and 66.57 gm
same,Shoots (gm),Corn [1]; single sample (pot),61.80 gm and 46.17 gm and 50.59 gm and 61.12 gm and 67.57 gm and 56.61 gm
same,Total (gm),Corn [1]; single sample (pot),104.20 gm and 84.61 gm and 103.07 gm and 117.34 gm and 109.75 gm and 123.18 gm
same,"Percent Change v. Control, Roots",Wheat,14%
same,"Percent Change v. Control, Shoots",Wheat,108%
same,"Percent Change v. Control, Total",Wheat,26%
same,Root/Shoot Ratio,Wheat,4.06
same,"Roots (gm), Average",Wheat; average of samples,23.93 gm
same,"Shoots (gm), Average",Wheat; average of samples,5.89 gm
same,"Total (gm), Average",Wheat; average of samples,29.83 gm
same,Shoots (gm),Wheat; single sample (pot),7.48 gm and 7.53 gm and 4.44 gm and 4.62 gm and 4.00 gm and 7.28 gm
same,"Percent Change v. Control, Roots",Corn [2]; 0.001 M,2%
same,"Percent Change v. Control, Shoots",Corn [2]; 0.001 M,5%
same,"Percent Change v. Control, Total",Corn [2]; 0.001 M,3%
same,Root/Shoot Ratio,Corn [2]; 0.001 M,1.04
same,"Roots (gm), Average",Corn [2]; 0.001 M,19.65 gm
same,"Shoots (gm), Average",Corn [2]; 0.001 M,18.85 gm
same,"Total (gm), Average",Corn [2]; 0.001 M,38.50 gm
same,Roots (gm),Corn [2]; 0.001 M,18.90 gm and 17.20 gm and 27.00 gm and 19.10 gm and 18.10 gm and 17.60 gm
same,Shoots (gm),Corn [2]; 0.001 M,21.10 gm and 14.00 gm and 17.60 gm and 22.00 gm and 18.90 gm and 19.50 gm
same,Total (gm),Corn [2]; 0.001 M,40.00 gm and 31.20 gm and 44.60 gm and 41.10 gm and 37.00 gm and 37.10 gm
same,"Percent Change v. Control, Roots",Corn [2]; 0.01 M,9%
same,"Percent Change v. Control, Shoots",Corn [2]; 0.01 M,7%
same,"Percent Change v. Control, Total",Corn [2]; 0.01 M,8%
same,Root/Shoot Ratio,Corn [2]; 0.01 M,1.09
same,"Roots (gm), Average",Corn [2]; 0.01 M,20.92 gm
same,"Shoots (gm), Average",Corn [2]; 0.01 M,19.17 gm
same,"Total (gm), Average",Corn [2]; 0.01 M,40.09 gm
same,Roots (gm),Corn [2]; 0.01 M,16.20 gm and 25.10 gm and 24.10 gm and 20.00 gm and 15.30 gm and 24.80 gm
same,Shoots (gm),Corn [2]; 0.01 M,18.60 gm and 22.10 gm and 23.00 gm and 16.60 gm and 15.50 gm and 19.70 gm
same,Total (gm),Corn [2]; 0.01 M,34.80 gm and 47.20 gm and 47.10 gm and 36.60 gm and 30.80 gm and 44.50 gm
same,"Percent Change v. Control, Roots",Corn [2]; 0.05 M,0%
same,"Percent Change v. Control, Shoots",Corn [2]; 0.05 M,−2%
same,"Percent Change v. Control, Total",Corn [2]; 0.05 M,−1%
same,Root/Shoot Ratio,Corn [2]; 0.05 M,1.09
same,"Roots (gm), Average",Corn [2]; 0.05 M,19.20 gm
same,"Shoots (gm), Average",Corn [2]; 0.05 M,17.62 gm
same,"Total (gm), Average",Corn [2]; 0.05 M,36.82 gm
same,Roots (gm),Corn [2]; 0.05 M,17.90 gm and 20.40 gm and 17.80 gm and 21.20 gm and 18.70 gm
same,Shoots (gm),Corn [2]; 0.05 M,17.40 gm and 20.60 gm and 15.90 gm and 18.40 gm and 15.80 gm
same,Total (gm),Corn [2]; 0.05 M,35.30 gm and 41.00 gm and 33.70 gm and 39.60 gm and 34.50 gm
same,"Percent Change v. Control, Roots",Cotton,159%
same,"Percent Change v. Control, Shoots",Cotton,18%
same,"Percent Change v. Control, Total",Cotton,74%
same,Root/Shoot Ratio,Cotton,1.46
same,"Roots (gm), Average",Cotton; average of samples,7.85 gm
same,"Shoots (gm), Average",Cotton; average of samples,5.38 gm
same,"Total (gm), Average",Cotton; average of samples,13.23 gm
same,Shoots (gm),Cotton; single sample (pot),4.80 gm and 4.40 gm and 6.20 gm and 5.50 gm and 5.70 gm
same,Total (gm),Cotton; single sample (pot),8.60 gm and 12.40 gm and 16.20 gm and 14.70 gm and 12.60 gm and 14.90 gm
